Patent US5866567A, “Diazepinones, their production and use” (Takeda Chemical Industries, Ltd., priority 1995, dated 1999)
Counter-ions that a name gives are not always drawn.

Columns and labels:
GnRH = details: relative to native GnRH; cited from earlier work
[1] = repeated administration, receptor down-regulation; cited from earlier work
Human GnRH receptor = target: T1, Human GnRH receptor (Homo sapiens, UniProt P30968); assay: Human GnRH receptor binding inhibition assay (125I-leuprolerin, membrane fraction of CHO cells expressing human GnRH receptors); details: CHO cell membrane fraction with human GnRH receptors, 25° C., 60 minutes, concentration series, Hill plot, read-out: Binding inhibitory activity (IC50)
T1 construct: expressed in transfected cells; host or cells: CHO (Chinese hamster ovary) cells, membrane fraction
T1 sequence (P30968 1-328): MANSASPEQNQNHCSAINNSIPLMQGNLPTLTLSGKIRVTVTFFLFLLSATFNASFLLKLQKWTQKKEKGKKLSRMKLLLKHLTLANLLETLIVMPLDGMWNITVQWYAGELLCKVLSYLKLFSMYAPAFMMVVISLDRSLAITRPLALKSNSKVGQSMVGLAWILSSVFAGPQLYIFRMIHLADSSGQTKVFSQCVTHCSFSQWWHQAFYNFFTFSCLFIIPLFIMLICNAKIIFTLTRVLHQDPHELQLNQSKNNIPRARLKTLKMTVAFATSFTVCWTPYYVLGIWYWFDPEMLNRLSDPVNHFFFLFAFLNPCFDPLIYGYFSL
Procedure: Human GnRH receptor binding inhibition assay
(A) Preparation of ^125 I-leuprolerin
Ten (10) μl of 3×10^-4 M aqueous leuprolerin solution and 10 μl of 0.01 mg/ml lactoperoxidase solution were taken in a tube, and 10 μl of Na^125 I solution (37 MBq) was added. After stirring, 10 μl of 0.001% H2 O2 was added and the reaction was conducted at room temperature for 20 minutes. The reaction was stopped by adding 700 μl of 0.05% TFA solution, and the reaction mixture was purified by reversed HPLC. The HPLC parameters are shown below. The retention time of ^125 I-leuprolerin was 26-27 minutes.
Column: TSKgel ODS-80™ CTR (4.6 mm×10 cm)
Eluent: Solvent A (0.05%TFA) Solvent B (40%CH3 CN-0.05%TFA)
Min. 0 (100% Solvent A)--Min. 3 (100% Solvent A)--Min. 7 (50% Solvent A+50% Solvent B)--Min. 40 (100% Solvent B) Elution temperature: room temperature Elution flow rate: 1 ml/min.
CHO cells (10^9 cells) with human GnRH receptors expressed were floated on phosphate-buffered saline containing EDTA (PBS-EDTA) and centrifuged at 100×g for 5 minutes. To the pellet obtained was added 10 ml of a cell homogenate buffer (10 mM NaHCO3, 5 mM EDTA, pH 7.5) and the mixture was homogenized using a Polytron homogenizer. The homogenate was centrifuged at 400×g for 15 minutes and the supernatant was taken in an ultracentrifuge tube and recentrifuged at 100,000×g for 1 hour. The membrane fraction thus obtained as a pellet was suspended in 2 ml of assay buffer and centrifuged at 100,000×g for 1 hour. The membrane fraction recovered was resuspended in 20 ml of assay buffer and the suspension was portioned, stored at -80° C., and thawed when needed.
(C) Determination of the ^125 I-leuprolerin binding inhibition rate
The membrane fraction prepared in Step (B) was diluted with assay buffer to 200 μg/ml and the dilution was portioned into tubes, 188 μl per tube. Then, 2 μl of 2 mM solution of the test compound in 60% DMSO and 10 μl of 38 nM ^125 I-leuprolerin solution in the same solvent were simultaneously added to the tubes. To determine the maximum binding, a test mixture of 2 μl of 60% DMSO and 10 μl of 38 nM ^125 I-leuprolerin solution in the same solvent was prepared. For the determination of nonspecific binding, a test mixture of 2 μl of 100 μM leuprolerin solution in 60% DMSO and 10 μl of 38 nM solution of ^125 I-leuprolerin in the same solvent was also prepared. The mixtures were respectively allowed to react at 25° C. for 60 minutes and the reaction product in each tube was filtered through a poly(ethylene imine)-treated Whatman glass filter (GF-F) under suction. The radioactivity of ^125 I-leuprolerin remaining on the filter was determined using a γ-counter.
Using the measured values, the following equation was calculated to find the binding inhibition rate for each test compound.
Binding inhibition (%)=(TB-SB)/(TB-NSB)×100
[SB: radioactivity with the compound added
TB: maximum bound radioactivity
NBS: nonspecifically bound radioactivity]
Using a concentration series of each test compound, the concentration of the compound which inhibited the binding by 50% (IC50) was calculated by Hill plot.

Compound: Leuprolerin acetate
- times as active as native GnRH (GnRH): 20-50 times
- production of testosterone [1]: cut down on the production of testosterone to the castrated level

Compound: O=C(Nc1ccc(CN2C(=O)[C@H]3CCC[C@H]3N(C(=O)CN3C(=O)c4ccccc4C3=O)c3ccccc32)cc1)c1ccc(F)cc1 (relative stereo) [Example 10, (3aR*,10aS*)-9-[4-(4-Fluorobenzamido)benzyl]-4-(phthalimidoacetyl)-2,3,3a,4,9,10a-hexahydrobenzo[b]cyclopenta[e][1,4]diazepin-10(1H)-one]
- IC50 (Human GnRH receptor): 200 nM

Compound: O=C(Nc1ccc(CN2C(=O)[C@H]3CCC[C@H]3N(C(=O)CN3C(=O)c4ccccc4C3=O)c3ccccc32)cc1)c1cccc(F)c1 (relative stereo) [Example 9, (3aR*,10aS*)-9-[4-(3-Fluorobenzamido)benzyl]-4-(phthalimidoacetyl)-2,3,3a,4,9,10a-hexahydrobenzo[b]cyclopenta[e][1,4]diazepin-10(1H)-one]
- IC50 (Human GnRH receptor): 200 nM

Compound: O=C(Nc1ccc(CN2C(=O)[C@H]3CCC[C@H]3N(C(=O)CN3C(=O)c4ccccc4C3=O)c3ccccc32)cc1)c1ccccc1 (relative stereo) [Example 7, (3aR*,10aS*)-9-(4-Benzamidobenzyl)-4-(phthalimidoacetyl)-2,3,3a,4,9,10a-hexahydrobenzo[b]cyclopenta[e]-[1,4]diazepin-10(1H)-one]
- IC50 (Human GnRH receptor): 200 nM

Compound: O=C(NCc1ccncc1)Nc1ccc(CN2C(=O)[C@H]3CCC[C@H]3N(C(=O)CN3C(=O)c4ccccc4C3=O)c3ccccc32)cc1 (relative stereo) [Example 34, (3aR*,10aS*)-4-(Phthalimidoacetyl)-9-[4-[3-(4-pyridylmethyl)ureido]benzyl]-2,3,3a,4,9,10a-hexahydrobenzo[b]cyclopenta[e][1,4]diazepin-l0(1H)-one hydrochloride]
- IC50 (Human GnRH receptor): 80 nM

Compound: O=C(Nc1ccc(CN2C(=O)[C@H]3CCC[C@H]3N(C(=O)CN3C(=O)c4ccccc4C3=O)c3ccccc32)cc1)c1ccc(Br)cc1 (relative stereo) [Example 12, (3aR*,10aS*)-9-[4-(4-Bromobenzamido)benzyl]-4-(phthalimidoacetyl)-2,3,3a,4,9,10a-hexahydrobenzo[b]cyclopenta[e][1,4]diazepin-10(1H)-one]
- IC50 (Human GnRH receptor): 300 nM
